Measured values: PMC8913810, “New insights into the resistance mechanism for the BceAB-type transporter SaNsrFP” (Scientific Reports, 2022)
Read-outs that look alike come from different tables or passages of the source. Bridge positions count the residues as written; N and C are the ends. Square brackets hold non-standard residues; d marks the D form. Peptide text beside a SMILES is read from it. * marks the point of attachment. Ileψ(thiazoline)Cys = CC[C@H](C)[C@H](N)C1=N[C@H](C(=O)*)CS1; dOrn = NCCC[C@@H](N)C(=O)O

Assays:
L. lactis NZ9000Cm [1] = conditions: read-out: IC50 (nM) L. lactis NZ9000Cm; GM17, 5 µg/ml chloramphenicol, 0.3 nM nisin, 30 °C, 5 h, optical density; at least 3 biological replicates with 3 technical replicates each
Experimental: (§1) After adding the different antibiotics to the cultures of the strains L. lactis wild type (WT), L. lactis NZ9000Cm, L. lactis NZ9000SaNsrFP and L. lactis SaNsrFH202AP, the IC50 was determined.
(§2) The half maximal inhibitory concentration was determined according to Abts et al.[71]. Briefly, L. lactis NZ9000Cm, L. lactis NZ9000SaNsrFP and L. lactis NZ9000SaNsrFH202AP cells were grown in GM17 medium containing 5 µg/ml chloramphenicol and 0.3 nM nisin at 30 °C overnight. Fresh GM17Cm medium with a sublethal amount of nisin (0.3 nM) was inoculated with overnight cultures to an OD600 of 0.1. A 96-well plate was prepared with a serial dilution of examined antibiotics (concentration ranges ramoplanin 0.014 nM–3.75 µM; lysobactin 0.002 nM–10 µM; vancomycin 0.02 nM–80 µM; nisin 0.0001 nM–0.5 µM) and subsequently the cell culture was added and plates were incubated at 30 °C for 5 h. Afterwards, the optical density was measured, and the IC50 values for each strain and antibiotic were calculated.

[2] = system: L. lactis NZ9000NsrFH202AP; conditions: for Fold of resistance L. lactis NZ9000NsrFH202AP: IC50 of NZ9000NsrFH202AP divided by IC50 of NZ9000Cm; for IC50: read-out: IC50 (nM) L. lactis NZ9000NsrFH202AP, GM17, 5 µg/ml chloramphenicol, 0.3 nM nisin, 30 °C, 5 h, optical density, at least 3 biological replicates with 3 technical replicates each
Experimental: as §1, §2

L. lactis NZ9000NsrFP [3] = conditions: for Fold of resistance L. lactis NZ9000NsrFP: IC50 of NZ9000NsrFP divided by IC50 of NZ9000Cm; for IC50: read-out: IC50 (nM) L. lactis NZ9000NsrFP, GM17, 5 µg/ml chloramphenicol, 0.3 nM nisin, 30 °C, 5 h, optical density, at least 3 biological replicates with 3 technical replicates each
Experimental: as §1, §2

L. lactis NZ9000NisT [4] = conditions: for Fold of resistance L. lactis NZ9000NisT: IC50 of NZ9000NisT relative to NZ9000Cm; for IC50: read-out: IC50 (nM) L. lactis NZ9000NisT, GM17, 5 µg/ml chloramphenicol, 0.3 nM nisin, 30 °C, 5 h, optical density
L. lactis NZ9000NsrFP [5] = conditions: fold changes described earlier for SaNsrFP; ref 34 (Reiners et al.); cited from earlier work
Source text: No significant differences were detected between NZ9000NsrFP and NZ9000NsrFH202AP with ramoplanin. […] IC50 values decreased to similar levels in L. lactis NZ9000SaNsrFH202AP (one, two ...

SaNSRS236A = system: SaNSRS236A; design: method as in earlier work; conditions: low-level resistance; ref 32 (Khosa et al.); cited from earlier work
L. lactis NZ9000Cm [6] = experiment: Growth curve, empty-plasmid strain; assay type: cell-based, Lactococcus lactis; conditions: 1 µM bacitracin + 1 mM ZnCl2 or 4 µM bacitracin without zinc; 0.3 nM nisin; monitored over 500 min, 30 °C
Source text: (§3) To investigate whether SaNsrFP confers resistance against bacitracin and Zn-bacitracin, binding to the lipid carrier UPP[20],[52], we analyzed the influence of the expression of the sansrfp gene. The sensitive L. lactis strain NZ9000, served as an indicator strain for these studies which was transformed with a plasmid encoding the nsrfp gene. We included two controls where the strains were transformed with (I) an empty plasmid (L. lactis NZ9000Cm) (II) a plasmid containing a variant of the nsrfp gene (L. lactis NZ9000SaNsrFH202AP)[34]. This NZ9000SaNsrFH202AP strain is used since the transporter carries a mutation in the H-loop, a highly conserved region of ABC transporters, and as a result is not able to hydrolyze ATP[47]. […] The growth of L. lactis NZ9000Cm, L. lactis NZ9000SaNsrFP, L. lactis NZ9000SaNsrFH202AP and L. lactis NZ9000NisT was monitored online over a time period of 500 min (Fig. 2a,b). After adding the different antibiotics to the culture, the growth curve was determined. […]
(§4) To detect the growth behavior of the different strains, precultures of L. lactis NZ9000Cm, L. lactis NZ9000SaNsrFP and L. lactis NZ9000SaNsrFH202AP cells were grown in GM17 medium with 5 or 10 µg/ml chloramphenicol and 0.3 nM nisin at 30 °C overnight. […] Growth was detected at OD584 every 10 min with a FLUOstar OPTIMA (BMG Lab technology).

L. lactis NZ9000SaNsrFP [7] = experiment: Growth curve, SaNsrFP-producing strain; assay type: cell-based, Lactococcus lactis; conditions: 1 µM bacitracin + 1 mM ZnCl2 or 4 µM bacitracin without zinc; 0.3 nM nisin; compared with untreated control strain
Source text: as §3, §4

[8] = system: L. lactis NZ9000SaNsrFH202AP; experiment: Growth curve, ATP-hydrolysis deficient mutant strain; assay type: cell-based, Lactococcus lactis; conditions: 4 µM bacitracin without ZnCl2; 0.3 nM nisin; monitored over 500 min
Source text: as §3, §4

L. lactis NZ9000NisT [9] = experiment: Growth curve, NisT-producing strain; assay type: cell-based, Lactococcus lactis; conditions: 1 µM bacitracin + 1 mM ZnCl2 or 4 µM bacitracin without zinc; 0.3 nM nisin; monitored over 500 min, 30 °C
Source text: as §3, §4

L. lactis NZ9000Cm [10] = experiment: Cytoplasmic PGN precursor accumulation (HPLC/MS), empty-plasmid strain; assay type: cell-based, Lactococcus lactis; conditions: bacitracin 100 µg/ml added at OD600 1.2, 30 min at 30 °C, repeated once; HPLC/MS EIC 1148.4 and 1263.4
Experimental: (§5) Cells were grown in M17 medium supplemented with 0.5% glucose and 0.3 nM nisin overnight at 30 °C without shaking. The next day, 100 ml with 0.5% glucose and 0.3 nM nisin was inoculated with overnight cultures to OD600 = 0.1. When OD600 = 1.2 bacitracin (100 µg/ml) was added to the cultures to enrich cell wall precursors, and the cultures were incubated for an additional 30 min at 30 °C. This step was repeated once. (As a control, a second culture each was harvested before bacitracin was added at an OD600 = 1.2, and cell pellets were stored at − 20 °C) After incubation with bacitracin, the cells were harvested, and the cell pellets were stored at − 20 °C. The next day, the cell pellets were resuspended in 25 ml water and cooked for 60 min in boiling water to break the cells. Cell debris was removed by centrifugation (15 min, 500×g, 4 °C). […]
(§6) Five microliters of each sample were injected into an XCT6330 LC/MSD ultratrap system (Agilent Technologies) equipped with a Nucleosil 100 C18 column (3 μm × 100 mm × 2 mm internal diameter, Dr. Maisch GmbH). […] Extracted ion chromatograms (EICs) in negative ion mode for UDP-MurNAc-L-Ala-D-iGlu-L-Lys-D-Ala-D-Ala (m/z^−1 1148.34 ± 0.1) and UDP-MurNAc-L-Ala-D-iGlu-L-Lys-(D-Asp)-D-Ala-D-Ala (m/z^−1 1263.37 ± 0.1) were analyzed with Data Analysis (Bruker), exported and presented with GraphPad Prism 6.0.

L. lactis NZ9000SaNsrFP [11] = experiment: Cytoplasmic PGN precursor accumulation (HPLC/MS), SaNsrFP-producing strain; assay type: cell-based, Lactococcus lactis; conditions: bacitracin 100 µg/ml added at OD600 1.2, 30 min at 30 °C, repeated once; HPLC/MS EIC 1148.4 and 1263.4
Experimental: as §5, §6

[12] = system: L. lactis NZ9000SaNsrFH202AP; experiment: Cytoplasmic PGN precursor accumulation (HPLC/MS), ATP-hydrolysis deficient mutant strain; assay type: cell-based, Lactococcus lactis; conditions: bacitracin 100 µg/ml added at OD600 1.2, 30 min at 30 °C, repeated once; compared with NZ9000Cm
Experimental: as §5, §6

Molecule	IC50 (L. lactis NZ9000Cm [1])	Fold of resistance L. lactis NZ9000NsrFH202AP [2]	IC50 [2]	Fold of resistance L. lactis NZ9000NsrFP (L. lactis NZ9000NsrFP [3])	IC50 (L. lactis NZ9000NsrFP [3])	Fold of resistance L. lactis NZ9000NisT (L. lactis NZ9000NisT [4])	IC50 (L. lactis NZ9000NisT [4])	Fold of resistance conferred by SaNsrFP (L. lactis NZ9000NsrFP [5])	Resistance against nisin, inactive protease variant SaNSRS236A (SaNSRS236A)	Fold of resistance L. lactis NZ9000NsrFP (L. lactis NZ9000NsrFP [3]; listed as bacitracin)	Growth behaviour of L. lactis NZ9000Cm (L. lactis NZ9000Cm [6])	Growth behaviour of L. lactis NZ9000SaNsrFP (L. lactis NZ9000SaNsrFP [7])	Growth behaviour of L. lactis NZ9000SaNsrFH202AP [8]	Growth behaviour of L. lactis NZ9000NisT (L. lactis NZ9000NisT [9])	PGN precursor accumulation in the cytoplasm, L. lactis NZ9000Cm (L. lactis NZ9000Cm [10])	PGN precursor accumulation in the cytoplasm, L. lactis NZ9000SaNsrFP (L. lactis NZ9000SaNsrFP [11])	PGN precursor accumulation in the cytoplasm, L. lactis NZ9000SaNsrFH202AP [12]
lysobactin	30.7 nM	3 ± 2 fold	102 ± 52.2 nM	6 ± 1 fold	182 ± 37 nM	1 ± 0 fold	25 ± 3 nM										
CN[C@H](CC(C)C)C(=O)N[C@H]1C(=O)N[C@@H](CC(N)=O)C(=O)N[C@H]2C(=O)N[C@H]3C(=O)N[C@H](C(=O)N[C@H](C(=O)O)c4cc(O)cc(O)c4-c4cc3ccc4O)[C@H](O)c3ccc(c(Cl)c3)Oc3cc2cc(c3O[C@@H]2O[C@H](CO)[C@@H](O)[C@H](O)[C@H]2O[C@H]2C[C@](C)(N)[C@H](O)[C@H](C)O2)Oc2ccc(cc2Cl)[C@H]1O [Vancomycin, vancomycin]	214 nM	2 ± 1 fold	325 ± 117 nM	5 ± 1 fold	1080 ± 264 nM	1 ± 0 fold	133 ± 9 nM										
nisin								16 fold	2.6 fold								
ramoplanin A2	73 ± 18 nM	1 ± 0 fold	92 ± 21 nM	2 ± 1 fold	121 ± 34 nM	1.3 ± 0 fold	95 nM										
CC[C@H](C)[C@H](N)C1=N[C@H](C(=O)N[C@@H](CC(C)C)C(=O)N[C@H](CCC(=O)O)C(=O)N[C@H](C(=O)N[C@H]2CCCCNC(=O)[C@H](CC(N)=O)NC(=O)[C@@H](CC(=O)O)NC(=O)[C@H](Cc3cnc[nH]3)NC(=O)[C@@H](Cc3ccccc3)NC(=O)[C@H]([C@@H](C)CC)NC(=O)[C@@H](CCCN)NC2=O)[C@@H](C)CC)CS1 [Bacitracin, bacitracin] ({Ileψ(thiazoline)Cys}-L[dE]IK[dOrn]I[dF]H[dD]N; lactam 4-C (inferred); N-terminus assumed)	938 ± 94 nM	13 fold	12900 nM	349 ± 65 fold	328000 nM	1 ± 0 fold	733 nM			350 fold	Severe growth inhibition	did not show reduced growth	reduced growth	Severe growth inhibition	presence of the characteristic PGN precursors	no accumulation of the PGN precursors	reduced PGN precursor accumulation
gallidermin								12 fold									
